Earlier results, collected in patent US20100215746A1, “PREVENTION OF CISPLATIN INDUCED DEAFNESS” (THE REGENTS OF THE UNIVERSITY OF MICHIGAN, priority 2002, published 2010).

Columns and labels:
[1] = system: neuropathic and ototoxic effects of cisplatin; settings: co-administration with cisplatin
[2] = system: hearing; settings: human, in vivo

Row | Structure (SMILES) | effectiveness in ameliorating neuropathic and ototoxic effects of cisplatin [1] | reported incidence of cisplatin-induced hearing loss [2]
1 | NCCCNCCSP(=O)(O)O [amifostine] | does not appear to be effective | 
2 | N.N.[Cl][Pt][Cl] [cisplatin] |  | 9-90%
